{
  "source": "patent US20160257931A1",
  "about": "“METHOD FOR CULTURE OF CORNEAL ENDOTHELIAL CELLS, PROCESS FOR PRODUCTION OF CORNEAL ENDOTHELIAL CELL SHEET FOR TRANSPLANTATION PURPOSES, AND CULTURE KIT FOR CORNEAL ENDOTHELIAL CELLS” (CORNEA REGENERATION INSTITUTE CO., LTD., priority 2010, published 2016)",
  "assay_type_in_all_cases": "cell-based",
  "key": {"[1]": {"test_system": "human corneal endothelial cell", "test": "Comparison with the conventional culture method on bovine corneal endothelial cell-producing extracellular substrate", "details": "FIG. 3", "description": "According to a conventionally-known method (Miyata K, Drake J, Osakabe Y, Hosokawa Y, Hwang D, Soya K, Oshika T, Amano S. Cornea. 2001 20:59-63), a human corneal endothelial cell was isolated and cultured. The method is briefly described in the following. The cornea was transferred into a 35 mm petri dish, and the endothelial face was washed with the basal medium. Using ultrafine forceps, the corneal endothelium was peeled off in a sheet with Descemet's membrane from the corneal inner periphery to the center, and transferred into a 35 mm petri dish. The Descemet's membrane was further cut into small slice pieces of about 2 mm square on the petri dish, and placed with the endothelial surface facing downward on a dish coated with an extracellular substrate produced by corneal endothelial cells of a fetal calf. The dish was carefully moved into an incubator at 37° C., 5% CO2, and cultured for 2-3 weeks while exchanging the medium every 2-3 days.\nIn any passage, more cells were obtained in the ascorbyl 2-phosphate addition group, and the total cell number reached after completion of the three passage operations was higher when cultured in the basal medium containing ascorbyl 2-phosphate."}, "[2]": {"test_system": "human corneal endothelial cell", "test": "Primary culture of corneal endothelial cells in the presence of ascorbyl 2-phosphate", "details": "for Number of obtained cells in primary culture: Asc-2P(+) 100 μg/ml in basal medium, atelocollagen-coated dish", "experimental": "Sclerocorneal segments prepared from 10 examples obtained from human eyes (from 14 to 69 years old) from Rocky Mountain Lions Eye Bank in a low temperature preservation state in a preservation solution (trade name: Optisol manufactured by Chiron corporation). The segments were 6 to 8 days old after death.\nThe sclerocorneal segments were transferred into a 35 mm petri dish, and the endothelial face was washed with DME medium containing 15% fetal calf serum (FCS) and 2 ng/ml basic fibroblast growth factor (bFGF) (hereinafter to be indicated as the basal medium).\nUsing ultrafine forceps, the corneal endothelium was peeled off in a sheet with the Descemet's membrane from the corneal inner periphery to the center and transferred into a 35 mm petri dish. The Descemet's membrane segment to which the corneal endothelial cells were attached was further cut into small pieces of about 2 mm square on the petri dish, and only the Descemet's slice pieces without attachment of a parenchymal tissue in a cottony form were recovered in a low adsorption centrifugation tube (manufactured by SUMITOMO BAKELITE Co., Ltd.), and incubated in the basal medium containing 0.2% collagenase (trade name: collagenase A, collagenase activity: >0.15 U/mg, manufactured by Roche K.K.) at 37° C., 5% CO2 for 1-3 hr.\nThe collagenase-treated cells were diluted with the basal medium, centrifugal washing (20 g, 2 min) was repeated three times, and the cells floating in the supernatant were removed. The cells were diluted with phosphate buffered saline (PBS), and centrifugal washing (20 g, 2 min) was performed once in the same manner. 0.5% Trypsin/0.2% ethylenediamine tetraacetic acid (EDTA) was added to the precipitated cell mass, and the mixture was incubated at 37° C., 5% CO2 for 5 min. The basal medium was added and the mixture was centrifuged (500 g, 5 min) to give cell pellets. The obtained cell pellets were resuspended in the basal medium containing 100 μg/ml ascorbyl 2-phosphate (manufactured by Wako Pure Chemical Industries, Ltd.) and the comparison basal medium without containing the same. The cells were each seeded on a dish prepared by the following method, and cultured in an incubator at 37° C., 5% CO2 for 2-4 weeks while exchanging the medium every 2-3 days.\n5 mg/ml Atelocollagen (bovine dermis-derived acidic collagen solution, trade name: IAC-50, manufactured by KOKEN CO., LTD) was diluted 100-fold with 10 mM acetic acid, 1 ml thereof was added to a 35 mm dish, left standing at 37° C. for 1 hr, and washed twice with PBS (2 ml) to prepare a dish coated with atelocollagen."}, "[3]": {"test_system": "human corneal endothelial cell", "test": "Subculture of corneal endothelial cells (passage stability)", "experimental": "The primary cultured cells (10 donors, 14- to 69-year-old) obtained in the above-mentioned 1 were each subcultured as follows.\nThe primary cultured cells were washed with PBS and dispersed in 0.5% trypsin/0.2% EDTA. The basal medium was added thereto, the mixture was centrifuged (500 g, 5 min), and suspended in the basal medium containing 100 μg/ml ascorbyl 2-phosphate and comparison basal medium without containing the same. The cells were seeded at 1000 cells/cm^2 on a dish coated with atelocollagen, which was prepared in the same manner as in the above-mentioned 1, and cultured at 37° C., 5% CO2. When the cells reached confluence, a similar passage operation was repeated."}},
  "data": [
    {"compound": "O=C1O[C@H]([C@@H](O)CO)C(O)=C1OP(=O)(O)O", "note": "[Asc-2P, ascorbyl 2-phosphate]", "values": [
      {"measurement": "Proliferation efficiency versus conventional method", "setting": "[1]", "value": "higher proliferation efficiency"},
      {"measurement": "Total cell number reached after completion of the three passage operations, versus conventional method", "setting": "[1]; atelocollagen plus ascorbyl 2-phosphate versus bovine corneal endothelial cell-producing extracellular substrate", "value": "higher"},
      {"measurement": "Number of obtained cells in primary culture", "setting": "[2]; donor No. 1, 27 days of culture", "value": 59, "unit": "×10e4 cells"},
      {"measurement": "Number of obtained cells in primary culture", "setting": "[2]; donor No. 2, 21 days of culture", "value": 32, "unit": "×10e4 cells"},
      {"measurement": "Number of obtained cells in primary culture", "setting": "[2]; donor No. 3, 21 days of culture", "value": 35, "unit": "×10e4 cells"},
      {"measurement": "Number of obtained cells in primary culture", "setting": "[2]; donor No. 4, 22 days of culture", "value": 39, "unit": "×10e4 cells"},
      {"measurement": "Number of obtained cells in primary culture", "setting": "[2]; donor No. 5, 26 days of culture", "value": 66, "unit": "×10e4 cells"},
      {"measurement": "Number of obtained cells in primary culture", "setting": "[2]; donor No. 6, 22 days of culture", "value": 27, "unit": "×10e4 cells"},
      {"measurement": "Number of obtained cells in primary culture", "setting": "[2]; donor No. 7, 26 days of culture", "value": 60, "unit": "×10e4 cells"},
      {"measurement": "Number of obtained cells in primary culture", "setting": "[2]; donor No. 8, 23 days of culture", "value": 308, "unit": "×10e4 cells"},
      {"measurement": "Number of obtained cells in primary culture", "setting": "[2]; donor No. 9, 24 days of culture", "value": 405, "unit": "×10e4 cells"},
      {"measurement": "Number of obtained cells in primary culture", "setting": "[2]; donor No. 10, 29 days of culture", "value": 20, "unit": "×10e4 cells"},
      {"measurement": "Number of corneal endothelial cells on completion of the primary culture, versus no addition", "setting": "[2]; all 10 donors (14 to 69 years old), 100 μg/ml", "value": "strikingly increased"},
      {"measurement": "Cell form in primary culture", "setting": "[2]; donor Nos. 5 and 7, basal medium containing ascorbyl 2-phosphate", "value": "flagstone-like cell images on the entire face of the culture dish"},
      {"measurement": "Number of cells obtained on completion of the subculture, versus no addition", "setting": "[3]; all 10 cases, 100 μg/ml, seeded at 1000 cells/cm^2, repeated subculture", "value": "higher"},
      {"measurement": "Number of cells obtained on repeated subculture, addition group versus non-addition group", "setting": "[3]; donor No. 8, FIG. 2 (a), (b)", "value": "higher"},
      {"measurement": "Cell form on completion of 6 passages", "setting": "[3]; donor No. 8, FIG. 2 (c)", "value": "maintained a flagstone-like form"}
    ]}
  ]
}
